# Experimental data taken from patent US20070166367A1, “Adept or gdept producing acetaldehyde” (priority 2004, published 2007).
# Read-outs that look alike come from different tables or passages of the source.
# What was measured:
# [1] = in vivo; cited from earlier work
# [2] = ethanol IP 3 g/kg, +30 minutes, cited from earlier work
# [3] = test system: Jurkat; test: in vitro acetaldehyde toxicity assay; format: cell-based
# Method: (§1) Standard tissue culture techniques were used to maintain Hela, Daudi, Jurkat, CMT-64 cells in flasks in DMEM+10% FCS in a 37° C. incubator.
# (§2) Cell lines subcloned into 25-cm^2 flasks and incubated in media containing dilutions of acetaldehyde, cisplatin or both. Flasks remained sealed during incubation and the media and acetaldehyde/cisplatin were replaced daily. Viable cell counts were made using Trypan blue exclusion and a standard haemocytometer.
# [4] = in vitro acetaldehyde toxicity assay; format: cell-based; settings: human, Jurkat cells; higher concentrations (500 uM and 1 mM), day 3, FIG. 1; read-out: viable cell numbers as % of starting number
# Method: as §1, §2
# [5] = test system: Hela; test: in vitro acetaldehyde toxicity assay; format: cell-based; settings: 250 uM acetaldehyde
# Method: as §1, §2
# [6] = ethanol fed animals, cited from earlier work
# [7] = acetaldehyde in breath and blood after ethanol consumption; format: in vivo; settings: suggested from breath values and partition coefficient
# [8] = test system: Human Fibroblasts; settings: 5 hr exposure, cited from earlier work
# [9] = test system: Human Lymphocytes; settings: cited from earlier work
# [10] = test system: DNA; settings: cited from earlier work
# [11] = during alcohol metabolism; cited from earlier work
# [12] = biological target: T1, Acetaldehyde dehydrogenase 2 (ALDH2) (Homo sapiens, UniProt P05091); settings: cited from earlier work
# T1 sequence (P05091 18-517): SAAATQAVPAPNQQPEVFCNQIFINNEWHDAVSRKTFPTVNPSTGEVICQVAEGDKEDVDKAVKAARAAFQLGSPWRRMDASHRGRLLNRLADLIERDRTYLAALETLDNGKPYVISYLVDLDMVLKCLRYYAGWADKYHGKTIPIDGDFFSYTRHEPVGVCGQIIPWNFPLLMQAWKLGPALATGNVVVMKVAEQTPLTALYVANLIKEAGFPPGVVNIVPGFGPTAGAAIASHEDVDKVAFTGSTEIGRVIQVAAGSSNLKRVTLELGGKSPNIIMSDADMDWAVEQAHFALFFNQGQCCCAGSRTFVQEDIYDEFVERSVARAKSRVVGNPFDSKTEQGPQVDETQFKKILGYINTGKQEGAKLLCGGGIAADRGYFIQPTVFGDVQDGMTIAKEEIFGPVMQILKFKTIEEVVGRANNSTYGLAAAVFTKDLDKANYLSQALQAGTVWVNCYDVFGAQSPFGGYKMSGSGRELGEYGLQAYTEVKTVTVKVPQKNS
# [13] = test system: CMT-64; test: in vitro acetaldehyde and cisplatin toxicity assay; format: cell-based
# Method: as §1, §2
# [14] = test system: Daudi; test: in vitro acetaldehyde and cisplatin toxicity assay; format: cell-based
# Method: as §1, §2
# [15] = in vitro acetaldehyde and cisplatin toxicity assay; format: cell-based; settings: human, Daudi cells; higher concentrations (500 uM and 1 mM), day 3, FIG. 1; read-out: viable cell numbers as % of starting number
# Method: as §1, §2
# [16] = tissue culture at 37° C., cited from earlier work
# [17] = test system: Daudi lymphoma cells; test: chronic exposure of Daudi lymphoma cells to acetaldehyde in tissue culture; format: cell-based
# Method: The effect of acetaldehyde on Daudi lymphoma cells was investigated. Chronic exposure to acetaldehyde of Daudi lymphoma cells in tissue culture was investigated with the media and acetaldehyde replaced every 24 hours, with the lids either tight closed or slightly open (the norm for tissue culture).
# B. Repeat method as above changing media and replacing acetaldehyde every 24 hours.
# Results are shown as the number of cells×10^4 remaining viable at each time point. (Days 0-6)
# [18] = cited from earlier work
# [19] = test system: CaCo-2 (Human colorectal cancer cells); settings: cited from earlier work; for Doubling Time: 72 hrs
smiles,measurement,setting,value
CC=O [acetaldehyde],level described for systemic acetaldehyde toxicity,[1],40 to 60 µM
same,acetaldehyde levels,[2]; ADH overexpressing heart,70 µM
same,acetaldehyde levels,[2]; control heart,15 µM
same,effect on proliferation,[3]; 250 uM acetaldehyde,reduction in the rate of proliferation
same,viable cells,"[3]; day 4, FIG. 1",no Jurkat cells viable
same,viability at 3 days,[4],7%
same,effect on proliferation,[5],reduction in the rate of proliferation
same,cellular conc,[6]; colon,about 250 μM
same,Acetaldehyde levels in colonic contents,[6],exceed 3 mM
same,blood values,[7],1 to 260 µM
same,% survival,[8]; 1 mM,75%
same,% survival,[8]; 2 mM,55%
same,Number of metaphases (cell divisions) counted,[9]; 90 μM,200
same,Number of metaphases (cell divisions) counted,[9]; 180 μM,200
same,Number of metaphases (cell divisions) counted,[9]; 360 μM,200
same,Number of metaphases (cell divisions) counted,[9]; 720 μM,130
same,Number of metaphases (cell divisions) counted,[9]; 1080 μM,23
same,Number of metaphases (cell divisions) counted,[9]; 1440 μM,0 and no growth
same,concentration that is toxic and produces irreparable DNA damage,[10],1.56 mM
same,levels in the liver,[11],~100 µM
same,Km,[12],3.5 µM
same,concentrations at which significant growth inhibition occurred,[13],over 500 uM
same,effect on proliferation,[13]; 250 uM acetaldehyde,reduction in the rate of proliferation
same,cell number as % of starting number,[13]; FIG. 2,170%
same,effect on proliferation,[14]; 250 uM acetaldehyde,reduction in the rate of proliferation
same,cell number as % of starting number,"[14]; higher cell density, 3 days exposure, FIG. 2",67%
same,viability at 3 days,[15],37%
same,½ life,[16],about 30 minutes
same,½ life,[16]; listed as Acetaldehyde,30 min
same,Numbers of viable cells,"[17]; 100 μM closed, 4S hr",280000 mL⁻¹
same,Numbers of viable cells,"[17]; 100 μM closed, 22 hr",230000 mL⁻¹
same,Numbers of viable cells,"[17]; 100 μM closed, 68 hr",370000 mL⁻¹
same,Numbers of viable cells,"[17]; 100 μM open, 22 hr",260000 mL⁻¹
same,Numbers of viable cells,"[17]; 100 μM open, 68 hr",510000 mL⁻¹
same,cell killing,"[17]; 100 μM, 6 days exposure",high levels of cell death
same,cell killing,"[17]; 100 μM, by 68 hours",no cell death but some inhibition of the rate of growth
same,number of cells remaining viable,"[17]; 100 μM, day 1",25 ×10^4
same,number of cells remaining viable,"[17]; 100 μM, day 2",28 ×10^4
same,number of cells remaining viable,"[17]; 100 μM, day 3",32 ×10^4
same,number of cells remaining viable,"[17]; 100 μM, day 4",26 ×10^4
same,number of cells remaining viable,"[17]; 100 μM, day 5",19 ×10^4
same,number of cells remaining viable,"[17]; 100 μM, day 6",2 (two) ×10^4
same,number of cells remaining viable,"[17]; 250 μM, day 1",31 ×10^4
same,number of cells remaining viable,"[17]; 250 μM, day 2",25 ×10^4
same,number of cells remaining viable,"[17]; 250 μM, day 3",14 ×10^4
same,number of cells remaining viable,"[17]; 250 μM, day 4",13 ×10^4
same,number of cells remaining viable,"[17]; 250 μM, day 5",0 ×10^4
same,cell killing,"[17]; 500 μM and above, 3-4 days exposure",high levels of cell death
same,Numbers of viable cells,"[17]; 500 μM closed, 4S hr",180000 mL⁻¹
same,Numbers of viable cells,"[17]; 500 μM closed, 22 hr",200000 mL⁻¹
same,Numbers of viable cells,"[17]; 500 μM closed, 68 hr",40000 mL⁻¹
same,Numbers of viable cells,"[17]; 500 μM open, 4S hr",210000 mL⁻¹
same,Numbers of viable cells,"[17]; 500 μM open, 22 hr",220000 mL⁻¹
same,Numbers of viable cells,"[17]; 500 μM open, 68 hr",40000 mL⁻¹
same,number of cells remaining viable,"[17]; 500 μM, day 1",31 ×10^4
same,number of cells remaining viable,"[17]; 500 μM, day 2",16 ×10^4
same,number of cells remaining viable,"[17]; 500 μM, day 3",11 ×10^4
same,number of cells remaining viable,"[17]; 500 μM, day 4",3 ×10^4
same,number of cells remaining viable,"[17]; 500 μM, day 5",0 ×10^4
same,cell killing,"[17]; 500 μM, within 3 days",nearly all the cells are dead
same,number of cells remaining viable,"[17]; 750 μM, day 1",28 ×10^4
same,number of cells remaining viable,"[17]; 750 μM, day 2",18 ×10^4
same,number of cells remaining viable,"[17]; 750 μM, day 3",5 ×10^4
same,number of cells remaining viable,"[17]; 750 μM, day 4",2 ×10^4
same,number of cells remaining viable,"[17]; 750 μM, day 5",0 ×10^4
same,Numbers of viable cells,"[17]; 1000 μM closed, 4S hr",30000 mL⁻¹
same,Numbers of viable cells,"[17]; 1000 μM closed, 22 hr",140000 mL⁻¹
same,Numbers of viable cells,"[17]; 1000 μM closed, 68 hr",0 mL⁻¹
same,Numbers of viable cells,"[17]; 1000 μM open, 4S hr",80000 mL⁻¹
same,Numbers of viable cells,"[17]; 1000 μM open, 22 hr",180000 mL⁻¹
same,Numbers of viable cells,"[17]; 1000 μM open, 68 hr",20000 mL⁻¹
same,cell killing,"[17]; 1000 μM, within 3 days",kill all the cells
same,concentrations of acetaldehyde in the breath,"[18]; after ethanol consumption, different patient groups",5 to 1300 nM
same,systemic concentrations of acetaldehyde,[18]; volunteers consuming alcohol with an hepatic ALDH inhibitor,up to 240 uM
same,Cytotoxicity,[19]; 500 μM and 1000 μM acetaldehyde for 72 hrs,No significant effects.
same,Doubling Time,[19]; 500 μM,150 % of control
same,Doubling Time,[19]; 1000 μM,270 % of control
